From US12233161B1, “Lipids and lipid nanoparticle formulations” (LONGUIDE BIOPHARMA CORPORATION, priority 2024, dated 2025)

Test system: mice
Assay: In vivo delivery of FLuc-mRNA lipid nanoparticles in mice, in vivo imaging (IVIS)
Details: Fluc-mRNA LNP, formulation, molar ratio and N/P as in the table
Procedure: After the preparation was completed, the preparation was injected intramuscularly (mice rectus femoris muscle of the thigh), intravenously (mice tail vein), or intraperitoneal injection or subcutaneous injection (subcutaneous on the back), with approximately 75 μL per mouse, for a total of 3 mice. After a certain time of injection, in vivo imaging (PerkinElmer, IVIS Lumina III) was performed. 10-15 minutes before imaging, 200 μL of 15 mg/mL D-Luciferin working solution was injected intraperitoneally, and the imaging analysis was performed using an in vivo imager.

Row | Compound | IVIS (route IM, organ not given) | IVIS (route IV, organ not given) | IVIS (route IV, organ: body) | % of organ targeting (route IV, organ: liver) [%] | IVIS (route IV, organ: liver) | % of organ targeting (route IV, organ: lung) [%] | IVIS (route IV, organ: lung) | % of organ targeting (route IV, organ: spleen) [%] | IVIS (route IV, organ: spleen)
1 | CCCCCCCCCCN(C)C(=O)C(O)CN(CCN(C)CCN(CC(O)C(=O)N(C)CCCCCCCCCC)CC(O)C(=O)N(C)CCCCCCCCCC)CC(O)C(=O)N(C)CCCCCCCCCC (stereo not shown) [Compound L0349] | 8.25E+04 | 5.98E+05 | – | – | – | – | – | – | –
2 | CCCCCCCCN(C)C(=O)C(O)CN(CCCN(C)CCCN(CC(O)C(=O)N(C)CCCCCCCC)CC(O)C(=O)N(C)CCCCCCCC)CC(O)C(=O)N(C)CCCCCCCC (stereo not shown) [Compound L0350] | 1.75E+05 | – | 8.43E+06 | 0.95 | 2.94E+05 | 96.29 | 2.99E+07 | 2.76 | 8.57E+05
3 | CCCCCCCCN(C)C(=O)C(O)CN(C)CCN(C)CCN(C)CC(O)C(=O)N(C)CCCCCCCC (stereo not shown) [Compound L0351] | 1.19E+06 | 1.55E+06 | – | – | – | – | – | – | –
4 | CCCCCCCCN(C)C(=O)C(O)CN(CCN(C)CCN(CC(O)C(=O)N(C)CCCCCCCC)CC(O)C(=O)N(C)CCCCCCCC)CC(O)C(=O)N(C)CCCCCCCC (stereo not shown) [Compound L0352] | 4.47E+05 | – | 1.95E+06 | 15.27 | 4.07E+05 | 8.93 | 2.38E+05 | 75.80 | 2.02E+06
5 | CCCCCCCCCCN(C)C(=O)C(O)CN(CCCN(CC(O)C(=O)N(C)CCCCCCCCCC)CC(O)C(=O)N(C)CCCCCCCCCC)CCCN(CC(O)C(=O)N(C)CCCCCCCCCC)CC(O)C(=O)N(C)CCCCCCCCCC (stereo not shown) [Compound L0353] | 1.68E+07 | – | 1.21E+08 | 31.60 | 3.54E+07 | 2.97 | 3.33E+06 | 65.43 | 7.33E+07
6 | CCCCCCCCN(C)C(=O)C(O)CN(CCCN(CC(O)C(=O)N(C)CCCCCCCC)CC(O)C(=O)N(C)CCCCCCCC)CCCN(CC(O)C(=O)N(C)CCCCCCCC)CC(O)C(=O)N(C)CCCCCCCC (stereo not shown) [Compound L0354] | 6.90E+06 | – | 1.35E+08 | 44.24 | 3.14E+07 | 1.31 | 9.31E+05 | 54.45 | 3.86E+07
7 | CCCCCCCCCCCCCCN(C)C(=O)C(O)CN(CCCN(C)CCCN(CC(O)C(=O)N(C)CCCCCCCCCCCCCC)CC(O)C(=O)N(C)CCCCCCCCCCCCCC)CC(O)C(=O)N(C)CCCCCCCCCCCCCC (stereo not shown) [Compound L0355] | 2.41E+06 | – | 9.52E+06 | 1.66 | 2.63E+05 | 84.86 | 1.34E+07 | 13.48 | 2.13E+06
8 | CCCCCCCCCCCCCCN(C)C(=O)C(O)CN(CCN(C)CCN(CC(O)C(=O)N(C)CCCCCCCCCCCCCC)CC(O)C(=O)N(C)CCCCCCCCCCCCCC)CC(O)C(=O)N(C)CCCCCCCCCCCCCC (stereo not shown) [Compound L0356] | 1.62E+05 | – | 2.19E+06 | 7.17 | 1.12E+05 | 75.97 | 1.18E+06 | 16.86 | 2.63E+05
9 | CCCCCCCCCCCCCCN(C)C(=O)C(O)CN(CCCN(CC(O)C(=O)N(C)CCCCCCCCCCCCCC)CC(O)C(=O)N(C)CCCCCCCCCCCCCC)CCCN(CC(O)C(=O)N(C)CCCCCCCCCCCCCC)CC(O)C(=O)N(C)CCCCCCCCCCCCCC (stereo not shown) [Compound L0357] | 3.97E+06 | – | 2.87E+07 | 55.56 | 6.55E+06 | 1.75 | 2.06E+05 | 42.69 | 5.03E+06
10 | CCCCCCC(CCCCCC)C(=O)OCCCCCCNC(=O)C(O)CN(CCCN(C)CCCN(CC(O)C(=O)NCCCCCCOC(=O)C(CCCCCC)CCCCCC)CC(O)C(=O)NCCCCCCOC(=O)C(CCCCCC)CCCCCC)CC(O)C(=O)NCCCCCCOC(=O)C(CCCCCC)CCCCCC (stereo not shown) [Compound L0358] | 1.45E+07 | – | – | – | – | – | – | – | –
